Structures can show the parent of a compound that is named as a salt.
Tests used:
[1] = test system: bronchoconstriction caused by 100 nmol/kg of histamine; assay: Histamine-induced bronchoconstriction test (Konzett and Rossler), intranasal-powder (In.P.) administration; type: in vivo, guinea pigs
Description: Furthermore, the antihistaminic properties were studied in guinea pigs by the bronchoconstriction test performed according to the method of H. Konzett and R. Rossler (Arch. Exp. Path. Pharmak.--Naunym Schmiedeberg - 195, 71-74, 1940). The products of the invention were studied in this test after administration in solution or in suspension via the intravenous and intraduodenal routes, and also in powder form via the intranasal route. Irrespective of the administration route, the preparation of the animals employed in the test consists in first anesthetizing male guinea pigs weighing 350 to 400 g by intraperitoneal (i.p.) injection of a sterile and isotonic solution containing 25% (w/v.) of ethyl carbamate on the basis of 6.0 ml/kg, and in then fitting the animals with a tracheal cannula to permit measurement of the pulmonary pressure, a cannula in the right jugular vein for the intravenous (i.v.) administration of solution, and also a cannula in the left carotid artery for qualitative observation of the blood pressure. The animals are then connected to a pump (Harvard, ref. 50-1718) in order to maintain an artificial ventilation at a frequency of 60 insufflations per minute; the intratracheal pressure is recorded by an assembly comprising a transducer, an amplifier and a recorder (Gould, respective refs.: PLOEZ, 13-4615-50 and 8188-[…]-06). Fitted in this way, the animals are left undisturbed for 10 minutes before the beginning of the actual experiment, which is carried out in different ways according to the administration route envisaged. c) intranasal-powder (In.p) administration The test product is administered via a nasal insufflation of a powder consisting of 20 mg of lactose loaded with the appropriate quantity of the test product. Before this insufflation, the artificial ventilation of the animal is momentarily stopped in order to facilitate the pulmonary penetration of the compound. […] Failing this expression, the results are expressed as a % change at the time in question and for a given concentration of the test product. […]

[2] = test system: bronchoconstriction caused by ovalbumin in the sensitized animal; assay: Inhibition of ovalbumin-induced anaphylactic bronchoconstriction in sensitized guinea pigs, oral; type: in vivo; details: Cavia porcellus, 1 h, intratracheal pressure after 60 minutes, read-out: ED50 inhibiting 50% of ovalbumin-induced bronchoconstriction
Protocol: The technique performed consists in previously sensitizing guinea pigs weighing 250 to 300 g by two intraperitoneal injections, separated by an interval of 24 hours, of 0.5 ml of a sterile suspension of physiological saline (0.9% NaCl) containing 20 μg of ovalbumin (Grade V; Sigma) and 100 mg of aluminum hydroxide Al(OH)3. At the same time, unsensitized control animals are treated with two injections of suspension not containing ovalbumin. The actual experiment is performed after a period needed for the sensitization of the animals, which is between 14 and 21 days. It is generally arrived at after 18 days, and consists in first administering increasing quantities of the test product in solution in water orally to groups of 5 animals, on the basis of 0.5 to 1.0 ml per animal, corresponding to doses of 1 to 10 μmol/kg of product. The animals are then anesthetized 50 minutes after this administration by an intraperitoneal injection of a solution of urethane. […] After 60 minutes, the intratracheal pressure measured in mm of Hg is determined for each animal of the test groups and those of the control group. These measurements enable the extent of the inhibition of bronchoconstriction produced by the test product to be determined. […]

Structure (SMILES) | ED50 ([1]; Cavia porcellus, 5 min, t = 5 min, read-out: ED50 at t = 5 min, inhibition of histamine-induced bronchoconstriction) | ED50 [2] | ED50 at t = 5 min, inhibition of histamine-induced bronchoconstriction [1]
C=CCN(C)[C@](C)(CO)Cc1ccc(Cl)c(Cl)c1 [Example 2, base, (S)-(+)-N-allyl-2-methylamino-2-(3,4-dichlorobenzyl)-1-propanol] | 1.28 µmol/kg |  | 
C=CCN(C)[C@](C)(CO)Cc1ccc(Cl)c(Cl)c1 [Example 2, hydrochloride, (S)-(+)-N-allyl-2-methylamino-2-(3,4-dichlorobenzyl)-1-propanol] |  | 1.84 µmol/kg | 1.77 µmol/kg
